# Measurements reported in DBAASP.
# What was measured:
# Assay in all cases: ≥ marks a high value that may be exact or a test limit, other limits are often not marked, values filed in µg/mL are converted to µM
# [1] = tested on: Staphylococcus aureus
# [2] = tested on: Escherichia coli
# [3] = tested on: Candida albicans ATCC 24433
# [4] = tested on: Trichophyton rubrum ATCC 28189
# [5] = tested on: Candida parapsilosis ATCC 22019
# [6] = tested on: Staphylococcus aureus MR
# [7] = tested on: Acinetobacter baumannii
# [8] = tested on: Escherichia coli ATCC 25922
# [9] = tested on: Staphylococcus aureus ATCC 25923
# [10] = tested on: Escherichia coli KpC+001812446
# [11] = tested on: Pseudomonas aeruginosa PA14
# [12] = tested on: Pseudomonas aeruginosa PAO1
# [13] = tested on: Klebsiella pneumoniae ATCC 13883
# [14] = tested on: Klebsiella pneumoniae KpC+001825971
# [15] = tested on: Enterobacter cloacae
# [16] = tested on: Escherichia coli BL21
# [17] = tested on: Staphylococcus aureus ATCC 12600
# [18] = tested on: Micrococcus luteus A270
# [19] = tested on: Candida albicans MDM8
# [20] = tested on: Serratia marcescens ATCC 4112
# [21] = tested on: Escherichia coli SBS 363
# [22] = tested on: Bacillus megaterium ATCC 10778
# [23] = tested on: Pseudomonas aeruginosa ATCC 27853
# [24] = tested on: Enterobacter cloacae beta-12
# [25] = tested on: Candida tropicalis IOC 4560
# [26] = tested on: Staphylococcus aureus ATCC 9144
# [27] = tested on: Candida albicans ATCC 10231
# [28] = tested on: Corynebacterium glutamicum ATCC 13032
# [29] = tested on: Aureobasidium pullulans
# [30] = tested on: Bacillus subtilis AB91021
# [31] = tested on: Staphylococcus aureus AB208193
# [32] = tested on: Staphylococcus aureus P1374
# [33] = tested on: Staphylococcus aureus P1381
# [34] = tested on: Staphylococcus aureus P1389
# [35] = tested on: Micrococcus luteus AB93113
# [36] = tested on: Staphylococcus aureus ATCC 6538
# [37] = tested on: Escherichia coli AB94012
# [38] = tested on: Staphylococcus epidermidis AB208188
# [39] = tested on: Bacillus thuringiensis AB92037
# [40] = tested on: Staphylococcus epidermidis AB208187
# [41] = tested on: Pseudomonas aeruginosa ATCC 9027
smiles,measurement,setting,value
CC[C@H](C)[C@H](NC(=O)[C@H](CC(C)C)NC(=O)[C@H](CCC(N)=O)NC(=O)[C@H](CO)NC(=O)[C@H](CCCN=C(N)N)NC(=O)[C@@H](N)CO)C(=O)N[C@H](C(=O)N[C@@H](Cc1cnc[nH]1)C(=O)N[C@@H](CCC(N)=O)C(=O)N[C@@H](CCCN=C(N)N)C(=O)N[C@@H](CC(C)C)C(=O)N[C@@H](Cc1ccccc1)C(N)=O)C(C)C [SRSQLIVHQRLF],MIC,[1],> 270 µM
same,MIC,[2],> 270 µM
same,MIC,[3],≥ 270 µM
same,MIC,[4],≥ 270 µM
same,MIC,[5],≥ 270 µM
CC[C@H](C)[C@H](N)C(=O)N[C@@H](CC(N)=O)C(=O)N[C@@H](CC(C)C)C(=O)N[C@@H](CCCCN)C(=O)N[C@@H](CCCCN)C(=O)N[C@@H](CC(C)C)C(=O)N[C@@H](C)C(=O)N[C@@H](C)C(=O)N[C@@H](CCCN=C(N)N)C(=O)N[C@H](C(=O)N[C@@H](CCCCN)C(=O)N[C@@H](CCCCN)C(=O)N[C@@H](CCCCN)C(=O)N[C@H](C(N)=O)[C@@H](C)CC)[C@@H](C)CC [INLKKLAARIKKKI],MIC,[6],8 µM
same,MIC,[7],≥ 32 µM
same,MIC,[8],4 µM
same,MIC,[9],8 µM
same,MIC,[10],8 µM
same,MIC,[11],4 µM
same,MIC,[12],4 µM
same,MIC,[13],≥ 32 µM
same,MIC,[14],≥ 32 µM
same,MIC,[15],≥ 32 µM
same,MIC,[16],2 µM
same,MIC,[17],4 µM
CC(C)C[C@H](NC(=O)CN)C(=O)NCC(=O)N[C@@H](C)C(=O)N[C@@H](CC(C)C)C(=O)N[C@@H](Cc1c[nH]c2ccccc12)C(=O)N[C@@H](CC(N)=O)C(=O)N[C@H](C(=O)N[C@@H](C)C(=O)N[C@@H](CCCCN)C(=O)N[C@@H](CO)C(=O)N[C@H](C(=O)N[C@@H](Cc1ccccc1)C(N)=O)C(C)C)C(C)C [GLGALWNVAKSVF],MIC,[18],0.8 µM
same,MIC,[19],25 µM
same,MIC,[20],0.8 µM
same,MIC,[21],≥ 50 µM
same,MIC,[22],3.1 µM
same,MIC,[23],> 50 µM
same,MIC,[24],≥ 50 µM
same,MIC,[25],25 µM
CC(C)[C@H](NC(=O)[C@H](CCCCN)NC(=O)[C@H](C)NC(=O)[C@@H](NC(=O)[C@@H](NC(=O)[C@H](CCCN=C(N)N)NC(=O)[C@H](CCCN=C(N)N)NC(=O)[C@H](Cc1c[nH]c2ccccc12)NC(=O)[C@H](Cc1c[nH]c2ccccc12)NC(=O)CN)[C@@H](C)O)C(C)C)C(=O)N[C@@H](CCCN=C(N)N)C(=O)N[C@@H](C)C(N)=O [GWWRRTVAKVRA],MIC,[8],6.3 µM
same,MIC,[26],≥ 50 µM
same,MIC,[27],25 µM
same,MIC,[28],0.8 µM
same,MIC,[29],≥ 50 µM
same,MIC,[23],6.3 µM
CC[C@H](C)[C@H](NC(=O)[C@H](CCCCN)NC(=O)[C@@H](NC(=O)[C@H](C)NC(=O)[C@H](CC(C)C)NC(=O)[C@H](CCCCN)NC(=O)[C@H](Cc1ccccc1)NC(=O)[C@H](CC(C)C)NC(=O)[C@H](C)NC(=O)CNC(=O)[C@H](Cc1ccccc1)NC(=O)[C@@H](N)Cc1ccccc1)[C@@H](C)O)C(=O)N[C@H](C(=O)N1CCC[C@H]1C(=O)N[C@@H](CO)C(=O)N[C@@H](CC(C)C)C(=O)N[C@@H](Cc1ccccc1)C(=O)N[C@@H](CCCN=C(N)N)C(=O)O)[C@@H](C)CC [FFGALFKLATKIIPSLFR],MIC,[30],3 µM
same,MIC,[8],12.1 µM
same,MIC,[9],3 µM
same,MIC,[31],3 µM
same,MIC,[32],3 µM
same,MIC,[33],3 µM
same,MIC,[34],1.5 µM
same,MIC,[35],≥ 48.3 µM
same,MIC,[36],1.5 µM
same,MIC,[37],≥ 48.3 µM
same,MIC,[38],1.5 µM
same,MIC,[39],1.5 µM
same,MIC,[40],1.5 µM
same,MIC,[41],12.1 µM
